Experimental data from patent US20130095059A1, “INHALED NO DONOR KMUPS DERIVATIVE PREVENTING ALLERGIC PULMONARY VASCULAR AND BRONCHIAL INFLAMMATION VIA SUPPRESSED CYTOKINES, INOS AND INFLAMMATORY CELL COUNTS IN ASTHMA MODEL” (priority 2007, published 2013).

Columns and labels:
5-HT2A receptor = target: T1, 5-HT2A receptor (Homo sapiens, UniProt P28223); test: Displacement of radioligand binding, 5-HT2A; settings: [^3H]-ketanserin, human recombinant CHO-K1 cells
T1 construct: full length clones of 5-HT2A, 5-HT2B and 5-HT2C receptor were prepared from CHO-K1 cells; expressed in transfected cells; host or cells: CHO-K1
T1 sequence (P28223 whole entry): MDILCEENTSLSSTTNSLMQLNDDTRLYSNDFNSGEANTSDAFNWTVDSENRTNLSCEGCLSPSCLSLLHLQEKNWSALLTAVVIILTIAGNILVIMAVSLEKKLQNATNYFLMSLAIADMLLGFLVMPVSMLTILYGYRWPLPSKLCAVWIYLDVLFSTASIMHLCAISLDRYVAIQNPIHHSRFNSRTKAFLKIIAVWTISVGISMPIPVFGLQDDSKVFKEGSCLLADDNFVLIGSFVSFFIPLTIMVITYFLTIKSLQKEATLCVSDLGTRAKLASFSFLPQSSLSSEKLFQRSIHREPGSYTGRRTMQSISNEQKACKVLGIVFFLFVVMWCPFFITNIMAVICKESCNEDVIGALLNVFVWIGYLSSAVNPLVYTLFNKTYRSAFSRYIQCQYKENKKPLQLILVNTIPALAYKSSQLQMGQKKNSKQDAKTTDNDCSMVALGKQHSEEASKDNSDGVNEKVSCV
Description: (§1) Displacement of Radioligand Binding Assay
(§2) As described previously, full length clones of 5-HT2A, 5-HT2B and 5-HT2C receptor were prepared from CHO-K1 cells. […] IC50 represents the concentration of competing ligand which displaces 50% of the specific binding of the radioligand. Ki values for competition curves were calculated using the Cheng-Prusoff equation (Cheng, 2001).

5-HT2C receptor = target: T2, 5-HT2C receptor (Homo sapiens, UniProt P28335); test: Displacement of radioligand binding, 5-HT2C; settings: [^3H]-mesulergine, human recombinant CHO-K1 cells
T2 construct: full length clones of 5-HT2A, 5-HT2B and 5-HT2C receptor were prepared from CHO-K1 cells; expressed in transfected cells; host or cells: CHO-K1
T2 sequence (P28335 33-458): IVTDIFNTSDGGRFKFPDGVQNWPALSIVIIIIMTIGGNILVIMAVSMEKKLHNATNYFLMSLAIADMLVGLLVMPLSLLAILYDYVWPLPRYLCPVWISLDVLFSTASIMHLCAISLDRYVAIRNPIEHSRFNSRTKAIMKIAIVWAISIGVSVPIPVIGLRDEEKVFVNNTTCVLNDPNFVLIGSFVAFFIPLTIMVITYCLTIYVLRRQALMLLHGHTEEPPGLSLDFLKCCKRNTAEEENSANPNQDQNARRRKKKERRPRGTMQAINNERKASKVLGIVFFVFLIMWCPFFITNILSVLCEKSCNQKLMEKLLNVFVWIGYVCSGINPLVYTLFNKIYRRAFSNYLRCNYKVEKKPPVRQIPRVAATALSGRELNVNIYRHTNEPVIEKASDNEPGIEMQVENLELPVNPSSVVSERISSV
Description: as §1, §2

PASMCs = test: Cell migration (wound) assay of PASMCs; type: cell-based, Wistar rats; settings: 10-100 μM; 5-HT 10 μM 24 h
Description: Migration of PASMCs was assessed using a wound assay model in which cells grown to confluence on 6 well dishes were scraped with the edge of a fine razor. The wound edge was viewed and photographed under a microscope (Nikon, Tokyo, Japan) before and after culture for 24 h in serum-free DMEM in the presence of 5HT (10 μM). The distance the cells migrated from the wound surface was then manually measured.

MMP-9 = test: Ovalbumine model, MMP-9 expression, zymography and immunostaining; type: in vivo, BALB/c mice
Description: (§3) In this long-term experiment, 6-8 week old BALB/c female mice were sensitized on days 1 and 8 by intra-peritoneal injection (i.p.) of ovalbumine (10 μg) (Sigma-Aldrich, Schnelldorf, Germany) adsorbed to 2 mg aluminum hydroxide (AlumInject; Perbio, Erembodegem, Belgium). Mice were divided into three groups. In Group 1, a control group was only exposed to saline nebulization by aerosol. The other 2 groups were subjected to ovalbumine (1%) nebulization. Before each challenge with ovalbumine, mice were either exposed to saline nebulization (Group 2) or KMUP-1 nebulization (5 mM) for 30 min by aerosol (Group 3).
The gelatinolytic activity of MMP-9 was measured by gelatin zymography as described previously (Cataldo D D, et al., 2002). Briefly, BALF (10 μl) was subjected to electrophoresis in 10% polyacrylamide gel containing gelatin (1 mg/ml). The gel was washed in 2.5% Triton X-100 to permit re-naturation of gelatinases and stained with Coomassie blue after overnight incubation. Destaining visualized clear zones of lysis against a blue background indicated the gelatinase activity (Hibbs, M S, et al., 1985).
The lung tissues were homogenized, washed with PBS and incubated in lysis buffer in addition to a protease inhibitor cocktail (Sigma, St. Louis, Mo.) to obtain extracts of lung proteins. A Western blot analysis was performed as described previously (Wu B N, et al., 2006). The samples were loaded to 10% SDS-PAGE gels and were separated at 120 V for 90 min. The blots were incubated with anti-eNOS antibody diluted at a ratio of 1:500, anti-sGCα1 antibody diluted at a ratio of 1:2000, anti-PKG antibody diluted at a ratio of 1:500, anti-VCAM-1 antibody diluted at a ratio of 1:500, anti-ICAM-1 antibody diluted at a ratio of 1:500, and anti-MMP-9 antibody diluted at a ratio of 1:600 overnight at 4° C. The membranes were stripped and re-blotted with anti-actin antibody (Sigma, St. Louis, Mo.) to verify the equal loading of protein in each lane.
Immunohistochemical analysis of eNOS enhancement by KMUP-1 was performed as follows. The lungs were perfused with saline followed by 10% formalin and then placed in 10% formalin for paraffin embedding. The lung tissues were cut into […] sections onto slides, dewaxed in 100% xylene, and then re-hydrated in graded alcohol solutions. Throughout the procedures, slides were washed as appropriate in PBS. Antigen retrieval was performed by microwave treatment for eNOS immunostaining. Sections were treated with 3% H2O2 (10 min) to inhibit endogenous peroxidases and incubated with normal serum (60 min) to reduce nonspecific binding of secondary antibodies. Sections were then incubated at 4° C. overnight with eNOS antibodies. After washing off unbounded primary antibodies, sections were incubated with secondary biotinylated antibodies against mouse or rabbit (DAKO Co., Japan) (60 min), followed by incubation in avidin/biotin/horseradish peroxidase complex (DAKO Co., Japan) (30 min) Subsequently, peroxidase activity was visualized by incubation (3 min) with 0.05% 3,3′-diaminobenzidine (DAKO Co., Japan), which gives a brown reaction product. The reaction was stopped by washing with water. The slides were counterstained with hematoxylin. For immunostaining of MMP-9 in lung tissue, the de-paraffinized 3-5 μm sections of lung tissue was performed as above eNOS, but using MMP-9 antibody.

NOx = test: Ovalbumine model, NO metabolites (NOx) in BALF; type: in vivo, BALB/c mice; settings: 24 hrs after last challenge; basal 65.4±8.2, ovalbumine 162.8±15.7
Description: as §3
The remaining BALF was centrifuged (900 g, 1200 rpm, 10 min) and the supernatant frozen (−80° C.) until determination of nitrite and nitrate by the Griess reaction. BALF (100 μL) was incubated (37° C.) for 30 min with N-2-hydroxyethylpiperazine-N′-ethane sulphonic acid buffer (HEPES) (50 mM, pH 7.4), flavin adenine dinucleotide (5 μM), nicotinamide adenine dinucleotide phosphate (0.1 mM), distilled water (290 μl), and nitrate reductase (0.2 U/ml) for the conversion of nitrate into nitrite. […] The samples were then incubated (25° C., 10 min) with Griess reagent [N-(1-naphthyl)-ethylenediamine: 0.2% (w/v), sulphanilamide: 2% (w/v), solubilized in double-distilled water: 95% and phosphoric acid: 5% (v/v)] and the absorbance measured at 540 nm. […]

BALF cells = test: Ovalbumine model, bronchoalveolar lavage cell counts; type: in vivo, BALB/c mice; settings: 24 hrs after the last ovalbumine challenge; nebulization
Description: as §3
After the sacrifice of mice, a cannula was placed in the trachea for bronchoalveolar lavage by gentle manual aspiration, using cold PBS-EDTA (0.05 mM, 1 ml) (Calbiochem, Darmstadt, Germany) as previously described (Cataldo D D, et al., 2002). The broncho alveolar lavage fluid (BALF) was centrifuged at 4° C. for 10 min (1200 rpm). The supernatant was frozen at −80° C. for protein assessment and the cell pellet was resuspended in PBS-EDTA (0.05 mM, 1 ml). Total cell counts were performed manually using a thoma chamber. The differential cell counts were performed using morphologic criteria on cytocentrifuged preparations (Cytospin) after staining with Diff-Quick (Dade, Belgium). Differential cell counts were performed by one blinded observer unaware of the experimental treatment.

## Cn1c(=O)c2c(ncn2CCN2CCN(c3ccccc3Cl)CC2)n(C)c1=O [KMUP-1, 7-[2-[4-(2-chlorophenyl)piperazinyl]ethyl]-1,3-dimethylxanthine]
5-HT2A receptor
  IC50: 340 nM
5-HT2A receptor; Cheng-Prusoff
  Ki: 97.1 nM
5-HT2C receptor
  IC50: 408 nM
5-HT2C receptor; Cheng-Prusoff
  Ki: 214 nM
PASMCs
  5-HT-induced PASMCs migration: concentration-dependently suppressed
MMP-9; 28-day experiment, nebulization
  increased MMP-9 expression by ovalbumine sensitization: significantly reduced
MMP-9; BALF, versus ovalbumine
  zymography of MMP-9: decreased
MMP-9; ovalbumine-sensitized and -challenged mice
  MMP-9 positive cells (immunostaining): hardly detected
NOx
  levels of NOx (nitrate+nitrite) in BALF: 86.3 ± 17.3 µM
BALF cells
  increase in total cells, lymphocytes and eosinophils in the airway lumen: significantly reduced
